Data as given in article PMC12086673, “Selective inhibition of NikA mediated Ni(II) import in E. coli by the Indium(III)-EDTA complex” (Metallomics: Integrated Biometal Science, 2025).

Biological target: T1, NikA (Escherichia coli, UniProt P33590)
T1 construct: wild type NikA, purified from periplasm (56 304 Da)
Experiment: isothermal titration calorimetry, one-site model
Type: binding

T1 sequence (P33590 23-524): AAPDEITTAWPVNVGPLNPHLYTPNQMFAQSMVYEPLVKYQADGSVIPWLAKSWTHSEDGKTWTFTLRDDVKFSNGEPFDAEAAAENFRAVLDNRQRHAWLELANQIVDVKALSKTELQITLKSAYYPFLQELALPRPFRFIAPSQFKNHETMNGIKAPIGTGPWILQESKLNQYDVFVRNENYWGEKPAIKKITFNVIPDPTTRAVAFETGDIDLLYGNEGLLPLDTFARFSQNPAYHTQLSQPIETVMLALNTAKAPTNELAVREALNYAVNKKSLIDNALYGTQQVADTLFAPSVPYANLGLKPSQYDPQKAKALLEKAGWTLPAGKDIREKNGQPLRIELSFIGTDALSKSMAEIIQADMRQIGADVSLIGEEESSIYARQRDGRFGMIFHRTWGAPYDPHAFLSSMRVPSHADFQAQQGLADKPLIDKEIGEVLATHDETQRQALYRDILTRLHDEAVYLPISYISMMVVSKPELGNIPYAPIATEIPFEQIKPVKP

Row | SMILES | Kd
1 | O=C([O-])CN(CCN(CC(=O)[O-])CC(=O)O)CC(=O)[O-].[In+3] [In(III)-EDTA] | 17.3 ± 3 µM
2 | O=C([O-])CN(CCN(CC(=O)[O-])CC(=O)O)CC(=O)[O-].[Fe+3] [Fe(III)-EDTA] | 7.4 ± 0.7 µM
